Measurements taken from patent publication US12234237B2, “Folate salts” (priority 2018, dated 2025).

Test: Solubility of the folate salt in organic (apolar) solvents at 20° C.
Conditions: based on total weight of the solution
Description: Solubility has been determined at 20° C. Apolar solvents or mixtures thereof are for instance glycerol, methanol, ethanol, 1-propanol, 2-propanol and dimethylsulfoxid (DMSO). Apolar solvents are understood as dry solvents, that is without any water content. Apolar solvents may be pure solvents, comprising only one type of apolar solvent or it may be a mixture of at least two of the aforementioned apolar solvents. Polarity is in comparison to the polarity of water.
A high degree of crystallinity means that the crystalline content of the folate salt is higher than 40% based on the total amount of the folate salt.

SMILES	Solubility in 1-Propanol [% w/w]	Solubility in DMSO [% w/w]	Solubility in Ethanol [% w/w]	Solubility in Glycerol [% w/w]	Solubility in Methanol [% w/w]
CN1c2c(nc(N)[nH]c2=O)NC[C@@H]1CNc1ccc(C(=O)N[C@@H](CCC(=O)O)C(=O)O)cc1.CNCCO.CNCCO [L-MTHF di NMAE, 5-Methyl-(6S)-tetrahydrofolic acid di N-methylaminoethanol salt]	0.1	3.5	0.2	16.7	3.6
CC(C)(N)CO.CC(C)(N)CO.CN1c2c(nc(N)[nH]c2=O)NC[C@@H]1CNc1ccc(C(=O)N[C@@H](CCC(=O)O)C(=O)O)cc1 [L-MTHF di AMP, 5-Methyl-(6S)-tetrahydrofolic acid di 2-Amino-2-methyl propanol salt]	0.1	23.1	0.1	16.7	11.2
CN(C)CCO.CN1c2c(nc(N)[nH]c2=O)NC[C@@H]1CNc1ccc(C(=O)N[C@@H](CCC(=O)O)C(=O)O)cc1 [L-MTHF mono deanol, 5-Methyl-(6S)-tetrahydrofolic Acid Mono 2-Dimethylaminoethanol Salt]	0.2	24.8	0.2	10.0	2.5
